Data: the supplement of paper PMC10307832

Tests used:
Experiment in all cases: relative viability (nuclei count vs DMSO), 5 days (fraction); higher = more cells survive
[1] = compound: COc1cccc2cc(-c3nc([C@H]4CC[C@H](C(=O)O)CC4)n4ncnc(N)c34)[nH]c12 [OSI-027] + CC1(C)CCC(c2ccc(Cl)cc2)=C(CN2CCN(c3ccc(C(=O)NS(=O)(=O)c4ccc(N[C@H](CCN5CCOCC5)CSc5ccccc5)c(S(=O)(=O)C(F)(F)F)c4)cc3)CC2)C1 [Navitoclax] (partner 0.5 µM)
How it was run: (§1)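 Relative viability was taken as the ratio of nuclei in treated wells to nuclei in vehicle wells. Lung cancer cell lines in 1536-well plates received compounds by pin tool one day after seeding, either one drug alone or a fixed anchor-drug dose plus five library-drug doses (not always all listed) in √10 steps. Nuclei were counted on 4× images after 5 days of treatment, and values are medians of duplicate plates.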

[2] = compound: CCCS(=O)(=O)Nc1ccc(F)c(C(=O)c2c[nH]c3ncc(-c4ccc(Cl)cc4)cc23)c1F [Vemurafenib] + CS(=O)(=O)N1CCN(Cc2cc3nc(-c4cccc5[nH]ncc45)nc(N4CCOCC4)c3s2)CC1 [Pictilisib] (partner 1 µM)
How it was run: as §1

[3] = compound: Cc1nc(NC(=O)N2CCC[C@H]2C(N)=O)sc1-c1ccnc(C(C)(C)C(F)(F)F)c1 [Alpelisib] + CCNC(=O)c1noc(-c2cc(C(C)C)c(O)cc2O)c1-c1ccc(CN2CCOCC2)cc1 [Luminespib] (partner 0.01 µM)
How it was run: as §1

[4] = compound: COc1cccc2cc(-c3nc([C@H]4CC[C@H](C(=O)O)CC4)n4ncnc(N)c34)[nH]c12 [OSI-027] + N=C(N)NC(=N)NCCc1ccccc1 [Phenformin] (partner 250 µM)
How it was run: as §1

Row | Cell Line | relative viability ([1]; first compound 0.01 µM) | relative viability ([1]; first compound 0.03162 µM) | relative viability ([1]; first compound 0.1 µM) | relative viability ([1]; first compound 0.3162 µM) | relative viability ([1]; first compound 1 µM) | relative viability ([2]; first compound 0.03162 µM) | relative viability ([2]; first compound 0.1 µM) | relative viability ([2]; first compound 0.3162 µM) | relative viability ([2]; first compound 1 µM) | relative viability ([3]; first compound 0.04 µM) | relative viability ([3]; first compound 0.1265 µM) | relative viability ([3]; first compound 0.4 µM) | relative viability ([3]; first compound 1.265 µM) | relative viability ([3]; first compound 4 µM) | relative viability ([4]; first compound 0.01 µM) | relative viability ([4]; first compound 0.03162 µM) | relative viability ([4]; first compound 0.1 µM) | relative viability ([4]; first compound 0.3162 µM) | relative viability ([4]; first compound 1 µM)
1 | LXF-289 | 1.03 | 0.973 | 1.01 | 0.921 | 0.582 | 0.711 | 0.724 | 0.698 | 0.758 | 0.69 | 0.806 | 0.619 | 0.534 | 0.632 | 0.525 | 0.518 | 0.543 | 0.484 | 0.398
2 | ChaGo-K-1 | 0.988 | 1.4 | 0.533 | 0.759 | 0.713 | 0.657 | 0.587 |  | 0.625 | 0.61 | 0.488 | 0.706 | 0.585 | 0.507 | 0.43 | 0.499 | 0.436 | 0.409 | 0.323
3 | NCI-H838 | 0.981 | 0.998 | 0.853 | 0.501 | 0.276 | 0.401 | 0.445 |  | 0.626 | 0.429 | 0.387 | 0.274 | 0.221 | 0.299 | 0.588 | 0.62 | 0.479 | 0.339 | 0.28
4 | NCI-H1993 | 0.89 | 0.863 | 0.659 | 0.502 | 0.719 | 0.767 |  | 0.801 | 0.831 | 0.751 | 0.744 | 0.758 | 0.476 | 0.503 | 0.529 | 0.472 | 0.492 | 0.546 | 0.547
5 | NCI-H1437 | 1.12 | 1.01 | 1.14 | 1 | 0.487 | 0.445 | 0.376 | 0.512 | 0.333 | 1.16 | 1.09 | 1.2 | 1.07 | 1.26 | 0.31 | 0.292 | 0.296 | 0.286 | 0.211
6 | NCI-H647 | 1.18 | 1.11 | 1.09 | 0.994 | 0.643 | 0.343 | 0.39 |  | 0.434 | 0.256 | 0.203 | 0.157 | 0.117 | 0.168 | 0.569 | 0.565 | 0.475 | 0.415 | 0.242
